PubChem BioAssay (NCI)
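Cells were grown in 96-well plates and exposed to each compound for 48 hours at five concentrations; endpoints were interpolated linearly between bracketing concentrations, or set to the highest concentration if not reached. At the TGI there is no net growth.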 Where a SMILES comes first, the peptide text is derived from it. The star is where a group is joined. Boc = CC(C)(C)OC(=O)*; OSu = O=C1CCC(=O)N1O*

Assays:
Experiment in all cases: NCI tumour cell line growth inhibition, 48 h
786-0 renal = test system: 786-0 renal
A498 renal = test system: A498 renal
BT-549 breast = test system: BT-549 breast
DU-145 prostate = test system: DU-145 prostate
HCT-116 colon = test system: HCT-116 colon
HOP-92 NSCLC = test system: HOP-92 NSCLC
HS 578T breast = test system: HS 578T breast
K-562 leukemia = test system: K-562 leukemia
MOLT-4 leukemia = test system: MOLT-4 leukemia
OVCAR-3 ovarian = test system: OVCAR-3 ovarian
OVCAR-8 ovarian = test system: OVCAR-8 ovarian
RPMI-8226 leukemia = test system: RPMI-8226 leukemia
SK-MEL-28 melanoma = test system: SK-MEL-28 melanoma
SK-OV-3 ovarian = test system: SK-OV-3 ovarian
SNB-19 CNS = test system: SNB-19 CNS
UACC-257 melanoma = test system: UACC-257 melanoma
UO-31 renal = test system: UO-31 renal
NCI-H226 lung = test system: NCI-H226 lung
LOX IMVI melanoma = test system: LOX IMVI melanoma

Row | Compound | TGI (786-0 renal) | TGI (A498 renal) | TGI (BT-549 breast) | TGI (DU-145 prostate) | TGI (HCT-116 colon) | TGI (HOP-92 NSCLC) | TGI (HS 578T breast) | TGI (K-562 leukemia) | TGI (MOLT-4 leukemia) | TGI (OVCAR-3 ovarian) | TGI (OVCAR-8 ovarian) | TGI (RPMI-8226 leukemia) | TGI (SK-MEL-28 melanoma) | TGI (SK-OV-3 ovarian) | TGI (SNB-19 CNS) | TGI (UACC-257 melanoma) | TGI (UO-31 renal) | TGI (NCI-H226 lung) | TGI (LOX IMVI melanoma)
1 | COC(=O)C1C/C(=C/N(C)C)C(=S)N1 (centres undefined) | > 100 µM | > 100 µM | > 100 µM | > 100 µM | > 100 µM | > 100 µM | > 100 µM | > 100 µM | > 100 µM | > 100 µM | > 100 µM | > 100 µM | > 100 µM | > 100 µM | > 100 µM | > 100 µM | > 100 µM |  | 
2 | COC(=O)/C=C\n1c(C)cc(=O)[nH]c1=O | > 100 µM | > 100 µM | > 100 µM |  | > 100 µM | > 100 µM | > 100 µM | > 100 µM | > 100 µM | > 100 µM | > 100 µM | > 100 µM | > 100 µM | > 100 µM | > 100 µM | > 100 µM | > 100 µM | > 100 µM | 
3 | O=S(=O)(O)c1cc(O)c2c(N=Cc3ccccc3O)cc(S(=O)(=O)O)cc2c1 | > 100 µM | > 100 µM | > 100 µM | > 100 µM | > 100 µM | > 100 µM |  | > 100 µM | > 100 µM | > 100 µM | > 100 µM | > 100 µM | > 100 µM | > 100 µM | > 100 µM | > 100 µM | > 100 µM | > 100 µM | > 100 µM
4 | CC(NC(=O)C(NC(=O)OC(C)(C)C)C(C)C)C(=O)NCC(=O)ON1C(=O)CCC1=O (stereo not drawn) (Boc-Val-Ala-Gly-OSu; configuration not given here) | > 100 µM |  | > 100 µM | > 100 µM | > 100 µM | > 100 µM |  | > 100 µM | > 100 µM | > 100 µM | > 100 µM | > 100 µM | > 100 µM | > 100 µM | > 100 µM | > 100 µM | > 100 µM | > 100 µM | 
5 | CCCSc1ccc2[nH]c(N3C(=O)/C(=C/c4ccco4)N=C3c3ccccc3)cc2c1 | > 50 µM | > 50 µM | > 50 µM | > 50 µM | > 50 µM | > 50 µM |  | > 50 µM | > 50 µM | > 50 µM | > 50 µM | > 50 µM | > 50 µM |  | > 50 µM | > 50 µM | > 50 µM |  | > 50 µM
6 | CC(=O)[C@@]1(C)CC2(CCN(C)CC2)OC1C (some centres undefined) | > 100 µM | > 100 µM | > 100 µM | > 100 µM | > 100 µM | > 100 µM |  | > 100 µM | > 100 µM | > 100 µM | > 100 µM | > 100 µM | > 100 µM | > 100 µM | > 100 µM | > 100 µM | > 100 µM | > 100 µM | > 100 µM
7 | COC(=O)C(Cc1c[nH]c2ccccc12)NC(=O)C(Cc1c[nH]c2ccccc12)NC(=O)C(Cc1c[nH]c2ccccc12)NC(=O)C(Cc1c[nH]c2ccccc12)NC(=O)C(Cc1c[nH]c2ccccc12)NC(=O)C(Cc1c[nH]c2ccccc12)NC(=O)OC(C)(C)C (centres undefined) (Boc-WWWWWW-OMe; configuration not given here) | > 100 µM |  | > 100 µM | > 100 µM | > 100 µM |  |  | > 100 µM | > 100 µM | > 100 µM | > 100 µM | > 100 µM | 31.1 µM |  | > 100 µM | > 100 µM | > 100 µM | > 100 µM | > 100 µM
8 | CCC12CCCN(Cc3ccccc3)C1c1c([nH]c3ccccc13)C(C(=O)OC)C2 (centres undefined) | > 10 µM |  | > 10 µM | > 10 µM | > 10 µM | > 10 µM | > 10 µM | > 10 µM | > 10 µM | > 10 µM | > 10 µM | > 10 µM | > 10 µM | > 10 µM | > 10 µM | > 10 µM |  |  | > 10 µM
9 | CCCN1C(=O)CC(C)N(Cc2ccccc2Cl)C1=S (centres undefined) | > 100 µM | 47 µM | 57.5 µM | > 100 µM | 79.4 µM | 69.3 µM | > 100 µM |  | > 100 µM | 88.8 µM | 72.1 µM | 70.4 µM | 62.4 µM | > 100 µM | > 100 µM | 38 µM |  |  | 54.9 µM
10 | Cc1cnc2sn(-c3ccc(Oc4ccccc4)cc3)c(=O)c2c1 | 30.7 µM |  | 42.2 µM | 37.8 µM | 71.4 µM |  | 50.9 µM |  | > 100 µM | 23.3 µM | > 100 µM | > 100 µM | 33.3 µM | > 100 µM | 46 µM | 43.7 µM | 42.8 µM | 47.6 µM | 81 µM
11 | Cc1nc(C)c(C(=O)NNC(N)=S)cc1C(=O)NNC(N)=S | > 100 µM |  | > 100 µM | > 100 µM | > 100 µM | > 100 µM | > 100 µM | > 100 µM | > 100 µM | > 100 µM | > 100 µM | > 100 µM | > 100 µM | > 100 µM | > 100 µM | > 100 µM | > 100 µM | > 100 µM | > 100 µM
12 | O=C(/C=C/c1ccc(O)c(O)c1)OCCCc1ccccc1 | 18.1 µM | 30.4 µM |  | 31.6 µM | 22.4 µM | 30.6 µM | 74.5 µM | 58.9 µM | 36.4 µM | 6.6 µM |  | 49.4 µM | 31.2 µM | 58.9 µM | 33.6 µM | 63.4 µM | 14.8 µM | 34.6 µM | 27.1 µM
13 | Cc1[nH]c2c(c1C)S(=O)(=O)c1cc3ccccc3nc1N2 | 30.4 µM | > 100 µM | > 100 µM | > 100 µM | > 100 µM | > 100 µM |  | > 100 µM | > 100 µM | 45.2 µM | 30.4 µM | 40.4 µM | 67.3 µM | > 100 µM | 70.6 µM | > 100 µM | 56.9 µM | 66.5 µM | 36.4 µM
14 | CCOC(=O)c1cc(-c2cc(OC)c(OC)c([N+](=O)[O-])c2)c([N+](=O)[O-])n1C | > 10 µM |  | > 10 µM |  | > 10 µM | > 10 µM | > 10 µM | > 10 µM | > 10 µM | > 10 µM | > 10 µM |  |  |  | > 10 µM | > 10 µM | > 10 µM | > 10 µM | 
15 | O=C1CC2(c3ccccc3)ON=C(c3ccccc3)N2c2ccccc2N1 (centres undefined) | > 100 µM | > 100 µM | > 100 µM | > 100 µM | > 100 µM | 83.6 µM |  | > 100 µM | > 100 µM | > 100 µM | > 100 µM | > 100 µM | > 100 µM | 51.7 µM | > 100 µM | > 100 µM | > 100 µM | > 100 µM | > 100 µM
16 | CCC(CON(C)c1ccccc1)(SC)SC | > 100 µM |  | > 100 µM | > 100 µM | > 100 µM | > 100 µM | > 100 µM |  | > 100 µM |  | > 100 µM | > 100 µM | > 100 µM | > 100 µM | > 100 µM | > 100 µM | > 100 µM | > 100 µM | > 100 µM
17 | CCCCC(=O)NS(=NC(=O)c1ccccc1)C(Cl)(Cl)Cl (centres undefined) | > 100 µM |  | > 100 µM | > 100 µM | > 100 µM | > 100 µM | > 100 µM | > 100 µM | > 100 µM | > 100 µM | > 100 µM | > 100 µM | > 100 µM | > 100 µM | > 100 µM | > 100 µM | > 100 µM | > 100 µM | > 100 µM
18 | N#CCc1n[nH]c(Cc2ccccc2)n1 | > 100 µM | > 100 µM | > 100 µM | > 100 µM | > 100 µM | > 100 µM | > 100 µM | > 100 µM | > 100 µM | > 100 µM | > 100 µM |  | > 100 µM | > 100 µM | > 100 µM | > 100 µM | > 100 µM |  | > 100 µM
19 | Oc1ccc(-c2nc(-c3cccnc3)c(-c3ccc(Cl)cc3)[nH]2)cc1O | > 100 µM |  | 21.6 µM | 90.8 µM | 26.7 µM |  | 36.4 µM | > 100 µM | > 100 µM | 14.5 µM | 30.2 µM | > 100 µM | 36.2 µM | 25.5 µM | 27.1 µM | 28.3 µM | 26.8 µM | 37.1 µM | 30.1 µM
20 | O=C1CCC2(CC1CC(Sc1ccccc1)Sc1ccccc1)OCCO2 (centres undefined) | > 100 µM | > 100 µM |  | > 100 µM |  | > 100 µM | 88.1 µM | > 100 µM | 66.3 µM | > 100 µM | > 100 µM | > 100 µM | > 100 µM | > 100 µM | > 100 µM | > 100 µM | > 100 µM | > 100 µM | > 100 µM
